Reference: ChEMBL document CHEMBL1149725, “4-acetylaplykurodin B and aplykurodinone B, two ichthyotoxic degraded sterols from the Mediterranean mollusk Aplysia fasciata” (J Nat Prod, 1992)

How the values were obtained:
Type in all cases: organism-based
Conditions in all cases: in vivo; call rule not given here
Gambusia affinis = experiment: Toxicity in Gambusia affinis at 10 ppm
Carassius auratus = experiment: Ichthyotoxicity in Carassius auratus at 60 ug/cm'2 by antifeedant assay
Artemia salina = experiment: Toxicity in Artemia salina

Structure (SMILES) | Activity (Gambusia affinis) | Activity (Carassius auratus) | LC50 (Artemia salina)
CC(=O)O[C@H]1CC[C@@]2(C)[C@H]3[C@H]1CC(=O)O[C@H]3C[C@@H]2[C@H](C)CCC=C(C)C [4-ACETYLAPLYKURODIN B] | Toxic | Active | 29.1 ppm
CC(C)=CCC[C@@H](C)[C@H]1C[C@@H]2OC(=O)C[C@H]3C(=O)CC[C@@]1(C)[C@H]23 [APLYKURODINONE] | Toxic | Active | –
